Where two headings read alike, the source gives them in different places.
Columns and labels:
human CEM T4 lymphocytes = experiment: Cytotoxic effect on CEM T4 lymphocytes; assay type: cell-based; set-up: unit not given beside the values; conditions: Tables 5 and 7, CEM cells
human Molt4/C8 cells = experiment: Cytotoxic effect on Molt4/C8 cells; assay type: cell-based; conditions: Tables 5 and 7, Molt4/C8 cells
CEM cells = experiment: Cytotoxic concentration in CEM cells (antiviral tests); assay type: cell-based, human; conditions: First and Second Series, second table; viability of CEM cells
Procedure: (§1) The toxicity and the antiviral activities were measured at different concentrations, and their evolution as a function of the concentration makes it possible to evaluate: • the concentration at which 50% of the cells are dead in the absence of virus (CC 50) for each of the test compounds, from the change in absorbance at 540 nm of formazan as a function of the concentration of test compound, • the concentration of compound that leads to a 50% reduction in the activity of viral reverse transcriptase (EC 50). This concentration is determined from the curve representing the change in the percentage of “remaining reverse transcriptase” activity (defined as being the ratio of the activity of the reverse transcriptase in the presence of the test compound to that of the untreated cells) as a function of the concentration of test compound.
CC50: cytotoxic concentration or concentration required to reduce the viability of the CEM cells by 50%.

[1] = test system: FM3A/0 murine mammary carcinoma cells; experiment: Cytotoxic effect on FM3A/0 cells; assay type: cell-based; set-up: unit not given beside the values; conditions: Tables 5 and 7, FM3A/0 cells
human CEM cells = experiment: Cytotoxicity (MTT) on CEM cells; assay type: cell-based; conditions: Homo sapiens, CCRF-CEM, Tables 4 and 6, CEM cells; some values 'then plateau'
Procedure: The cytotoxic effect of a compound is studied on human CEM cells and MCF-7 mammary carcinoma cells that are or are not resistant to gemcitabine, which is an anticancer nucleoside used in chemotherapy.
The cytotoxicity (CC50) was estimated by measuring the reduction of 3-(4,5-dimethylthiazol-2-yl)-2,5-diphenyltetrazolium bromide (MTT), which is converted into insoluble violet formazan. To do this, 100 000 cells (human CEM-SS or MCF-7 lines) are inoculated per well in 100 μl of culture medium, in 96-well microtitration plates. After 24 hours, the test products are added in 100 μl and incubation is continued for 48 to 72 hours. MIT is then added in a proportion of 20 μl of a solution at 5 mg/ml in PBS. Three hours later, 100 μl of a DMF/acetic acid/HCl/SDS (sodium dodecyl sulfate) solution are added. After 3 hours at 37° C., the absorbance of the formazan is measured at 590 nm and compared with that of the untreated control.

[2] = test system: L1210/0 murine leukemia cells; experiment: Cytotoxic effect on L1210/0 cells; assay type: cell-based; conditions: Tables 5 and 7, L1210/0 cells
HIV-2 [3] = experiment: Anti-HIV-2 effect in CEM cells; assay type: cell-based; conditions: Human immunodeficiency virus 2, CCRF-CEM, CEM cells, read-out: EC50 HIV-2
Procedure: (§2) The evaluation test is described in Roy, B.; Chambert, S.; Lepoivre M.; Aubertin, A.-M.; Balzarini, J.; Décout, J.-L., Deoxyribonucleoside 2′- or 3′-mixed disulfides: prodrugs to target ribonucleotide reductase and/or to inhibit HIV reverse transcription. J. Med. Chem. 2003, 46, 2565-2568.
as §1
(§3) EC50: concentration required to afford 50% protection to the CEM cells against the cytopathogenicity of HIV;

HIV-1 = experiment: Anti-HIV-1 effect in CEM cells; assay type: cell-based; conditions: Human immunodeficiency virus 1, CCRF-CEM, read-out: EC50 HIV-1
Procedure: as §2, §1, §3

HIV-2 [4] = experiment: Anti-HIV-2 effect in CEM/TK− cells; assay type: cell-based; conditions: Human immunodeficiency virus 2, CEM-TK(-); Third Series; CEM cells having no thymidine kinase activity
Procedure: as §2, §1, §3
• Effect in CEM not expressing thymidine kinase activity (CEM/TK^−, cells having no thymidine kinase activity).

HeLa cells = experiment: Cytotoxic effect on HeLa cells; assay type: cell-based; set-up: unit not given beside the values; conditions: Tables 5 and 7, HeLa cells
[5] = First and Second Series, second table

In the case of `Cc1cn([C@H]2C[C@H](SSC(Cl)(Cl)Cl)[C@@H](CO)O2)c(=O)[nH]c1=O` [Compound 22, 3′-deoxythymidin-3′-yl trichloromethyl disulfide], the “cytotoxic effect, CEM” value (human CEM T4 lymphocytes) is reported as 121 ± 18, the “cytotoxic effect, Molt4/C8” value (human Molt4/C8 cells) is reported as 55 ± 19 and the CC50 (CEM cells) is reported as 103 ± 4 µM. For the same molecule, the “cytotoxic effect, FM3A/0” value [1] was 244 ± 49, the EC50 (human CEM cells) was 21 µM and the “cytotoxic effect, L1210/0” value [2] was 45 ± 1. The EC50 (HIV-2 [3]; [5]) was 17.5 ± 3.5 µM, the EC50 (HIV-2 [3]; Third Series) was 27.5 ± 3.5 µM and the EC50 (HIV-1; [5]) was 25 µM. For the same molecule, the EC50 (HIV-1; Third Series) was 20 µM, the EC50 (HIV-2 [4]) was 22.5 ± 3.5 µM and the “cytotoxic effect, HeLa” value (HeLa cells) was 39 ± 10.

From patent US20100075917A1, “THIONUCLEOSIDES AND PHARMACEUTICAL APPLICATIONS” (priority 2006, published 2010)
